system: ATF4 luciferase reporter; test: ATF4 luciferase reporter assay (Cell-luc) in HEK293T cells; format: cell-based, human; details: ATF4 luciferase reporter, HEK293T cells; read-out: IC50 (nM) Cell-luc
Text: FIGS. 1A-1C. […]
To identify inhibitors of PERK signaling, we engineered a reporter that allows monitoring of PERK activation in living cells. To this end, we constructed a retroviral vector containing the open-reading frame of firefly luciferase fused to the 5′UTR of ATF4 mRNA (FIG. 1A), which contains two short open-reading frames (uORFs) that control ATF4 translation in a stress-dependent manner. After infection, we established a HEK293T cell line harboring the stably integrated reporter. […] This format was used to screen 106,281 compounds covering a wide chemical space. We identified 460 hits (0.43%) (FIG. 1C), which were further validated in an 8-point dose-response assay using the same reporter. We further triaged the compounds by discarding inhibitors that also affected the IRE1 branch of the UPR using an XBP1-luciferase splicing reporter. […] We next used an orthogonal secondary screen that employed a different reporter (bi-cistronic ATF4-dGFPIRES-mCherry) stably integrated into a different cell line (U20S cells). The read-out of this latter screen was microscopy-based, which allowed us to simultaneously assess acute toxicity by cell counting, further reducing the number of viable hits to 77. As a tertiary screen, we tested compounds for their ability to inhibit ER stress-elicited induction of endogenous ATF4 by Western blot analysis. Twenty-eight compounds passed this test and were analyzed further.
ATF4 reporters were constructed by fusing the human full-length ATF4 5′-UTR (NCBI Accession BC022088.2) in front of the firefly luciferase (FLuc) or a destabilized eGFP (dEGFP) coding sequences lacking the initiator methionine.
The ATF4-FLuc reporter was generated by cloning a PCR-product containing the ATF4 full-length 5′-UTR (from +1 position a the transcription start site down to one nucleotide after the terminator codon of the second uORF) flanked by KpnI/XhoI and BglII sites at the 5′ and 3′ ends, respectively, into the KpnI-BglII sites of pCAX-F-XBP1-Luc. The resulting construct, pCAX-ATF4-FLuc, was then digested with BamHI, blunted with T4 DNA polymerase, and then digested with XhoI. The resulting fragment was then subcloned into the retroviral expression vector pLPCX (Clontech) after digesting it with HindIII, blunting with T4 DNA polymerase and then digesting with XhoI to generate pLPCX-ATF4-FLuc (DAA-312). DAA-312 was used to produce recombinant retroviruses using standard methods and the resulting viral supernatant was used to transduce HEK293T cells, which were then subsequently selected with puromycin to generate a stable cell line employed in the primary screen.
HEK293T cells carrying the ATF4 luciferase reporter were plated on poly-lysine coated 384 well plates (Greiner) at 30,000 cells per well. […] Luminescence was measured using One Glo (Promega) as specified by the manufacturer. […] Thus, these were considered unique to the PERK branch and were cherry-picked for further analysis.

Row | IC50 | SMILES
1 | > 10000 nM | O=C(COc1ccc([N+](=O)[O-])cc1)N[C@H]1CC[C@H](NC(=O)COc2ccc([N+](=O)[O-])cc2)CC1 [compound 757130]
2 | 75 nM | O=C(COc1ccc(Cl)cc1)N[C@H]1CC[C@H](NC(=O)COc2ccc(Cl)cc2[N+](=O)[O-])CC1 [compound 843987]
3 | 3 nM | O=C(COc1ccc(Cl)cc1)N[C@H]1CC[C@H](NC(=O)COc2ccc(Cl)c([N+](=O)[O-])c2)CC1 [compound 874804]

same assay, conditions: Homo sapiens, HEK-293T, ATF4 luciferase reporter, HEK293T cells; read-out: IC50 (nM) Cell-luc

Row | SMILES | IC50
4 | C[S+]([O-])c1ccc(OCC(=O)N[C@H]2CC[C@H](NC(=O)COc3ccc([S+](C)[O-])cc3)CC2)cc1 (some centres unmarked) [compound 757096] | > 10000 nM
5 | O=C(COc1ccc(F)cc1)N[C@H]1CC[C@H](NC(=O)COc2ccc(F)cc2)CC1 [compound 757131] | 270 nM
6 | C#C[C@]1(NC(=O)COc2ccc(Cl)cc2)CC[C@@H](NC(=O)COc2ccc(Cl)cc2)CC1 [compound 757132] | 3000 nM
7 | C#C[C@]1(NC(=O)COc2ccc(Cl)cc2)CC[C@H](NC(=O)COc2ccc(Cl)cc2)CC1 [compound 757149] | 37 nM
8 | O=C(COc1ccc(F)cc1)N[C@H]1CC[C@H](NC(=O)COc2ccc(Cl)cc2)CC1 [compound 757257] | 48 nM
9 | O=C(COc1ccc(Cl)cc1)N[C@H]1CC[C@H](NC(=O)COc2ccc(C(F)(F)F)cc2)CC1 [compound 757258] | 10 nM
10 | N#Cc1ccc(OCC(=O)N[C@H]2CC[C@H](NC(=O)COc3ccc(Cl)cc3)CC2)cc1 [compound 757259] | 263 nM
11 | C[S+]([O-])c1ccc(OCC(=O)N[C@H]2CC[C@H](NC(=O)COc3ccc(Cl)cc3)CC2)cc1 (some centres unmarked) [compound 757260] | > 10000 nM
12 | O=C(COc1ccc(Cl)cc1)N[C@H]1CC[C@H](NC(=O)CSc2ccc(Cl)cc2)CC1 [compound 757261] | > 10000 nM
13 | O=C(COc1ccc(Cl)cc1)N[C@H]1CC[C@H](NC(=O)C[S+]([O-])c2ccc(Cl)cc2)CC1 (some centres unmarked) [compound 757262] | > 10000 nM
14 | O=C(COc1ccc(Cl)cc1)N[C@H]1CC[C@H](NC(=O)CS(=O)(=O)c2ccc(Cl)cc2)CC1 [compound 757263] | > 10000 nM
15 | O=C(COc1ccc(Cl)cc1)N[C@H]1CC[C@H](NC(=O)CSc2ccccc2)CC1 [compound 811769] | > 10000 nM
16 | O=C(COc1ccc(Cl)cc1)N[C@H]1CC[C@H](NC(=O)CSc2ccc(F)cc2)CC1 [compound 811770] | 900 nM
17 | O=C(COc1ccc(Cl)cc1)N[C@H]1C[C@H](NC(=O)CSc2ccc(Cl)cc2)C1 [compound 811771] | > 10000 nM
18 | O=C(COc1ccc(Cl)cc1)N[C@H]1C[C@H](NC(=O)CSc2ccc(F)cc2)C1 [compound 811772] | > 10000 nM
19 | O=C(COc1ccc(Cl)cc1)N[C@H]1C[C@H](NC(=O)CSc2ccccc2)C1 [compound 811773] | > 10000 nM
20 | O=C(CCCC[C@H]1SCC2NC(=O)NC21)NCCOCCOCCOCCn1cc([C@]2(NC(=O)COc3ccc(Cl)cc3)CC[C@H](NC(=O)COc3ccc(Cl)cc3)CC2)nn1 (some centres unmarked) [compound 835087] | 2700 nM
21 | O=C(CNc1ccc(Cl)cc1)N[C@H]1CC[C@H](NC(=O)COc2ccc(Cl)cc2)CC1 [compound 835089] | 700 nM
22 | O=C(COc1ccc(Cl)cc1)N[C@H]1CC[C@H](NCCOc2ccc(Cl)cc2)CC1 [compound 835195] | 170 nM
23 | O=C(COc1ccc(Cl)cc1)N[C@H]1CC[C@H](N(CCOc2ccc(Cl)cc2)CCOc2ccc(Cl)cc2)CC1 [compound 835196] | 1400 nM
24 | N=C(COc1ccc(Cl)cc1)N[C@H]1CC[C@H](N(Cc2cn(CCOCCOCCOCCNC(=O)CCCC[C@@H]3SCC4NC(=O)NC43)nn2)C(=O)COc2ccc(Cl)cc2)CC1 (some centres unmarked) [compound 835197] | > 10000 nM
25 | CC(=O)c1ccc(OCC(=O)N[C@H]2CC[C@H](NC(=O)COc3ccc(Cl)cc3)CC2)cc1 [compound 843983] | > 10000 nM
26 | CC(=O)c1cccc(OCC(=O)N[C@H]2CC[C@H](NC(=O)COc3ccc(Cl)cc3)CC2)c1 [compound 843984] | 1000 nM
27 | O=C(COc1ccc(Cl)cc1)NCc1cccc(NC(=O)COc2ccc(Cl)cc2)c1 [compound 873882] | > 10000 nM
28 | O=C(NCc1ccc(CNC(=O)Oc2ccc(Cl)cc2)cc1)Oc1ccc(Cl)cc1 [compound 885254] | > 10000 nM
29 | O=C(COc1ccc(Cl)cc1)N[C@H]1CC[C@H](CNC(=O)Oc2ccc(Cl)cc2)CC1 [compound 885255] | 30 nM
30 | O=C(NC[C@H]1CC[C@H](CNC(=O)Oc2ccc(Cl)cc2)CC1)Oc1ccc(Cl)cc1 [compound 913815] | > 10000 nM
31 | C[Si](C)(C)C#Cc1cc(OCC(=O)N[C@H]2CC[C@H](NC(=O)COc3ccc(Cl)cc3)CC2)ccc1Cl [compound 914583] | 12 nM
32 | C[Si](C)(C)C#Cc1ccc(OCC(=O)N[C@H]2CC[C@H](NC(=O)COc3ccc(Cl)cc3)CC2)cc1 [compound 916348] | 160 nM

Second part, the compound after the results:

Row | IC50 | SMILES
33 | 2600 nM | C[C@@H]1NC(=O)N[C@@H]1CCCCCC(=O)NCCOCCOCCOCCn1cc([C@]2(NC(=O)COc3ccc(Cl)cc3)CC[C@H](NC(=O)COc3ccc(Cl)cc3)CC2)nn1 [compound 873883]
34 | > 10000 nM | CC(=O)c1cc(Cl)ccc1OCC(=O)N[C@H]1CC[C@H](NC(=O)COc2ccc(Cl)cc2)CC1 [compound 873972]
35 | > 10000 nM | O=C(COc1ccc(Cl)cc1)N[C@H]1CC[C@H](NC(=O)COc2ccc(Cl)cc2C(=O)c2ccccc2)CC1 [compound 873973]
36 | > 10000 nM | O=C(COc1ccc(Cl)cc1)NCc1ccc(CNC(=O)COc2ccc(Cl)cc2)cc1 [compound 874796]
37 | 122 nM | O=C(COc1ccc(Cl)cc1)N[C@H]1CC[C@H](NC(=O)OCc2ccc(Cl)cc2)CC1 [compound 874797]
38 | 200 nM | CC(C)c1ccc(OCC(=O)N[C@H]2CC[C@H](NC(=O)COc3ccc(Cl)cc3)CC2)cc1 [compound 874798]
39 | 210 nM | CC(Oc1ccc(Cl)cc1)C(=O)N[C@H]1CC[C@H](NC(=O)COc2ccc(Cl)cc2)CC1 (some centres unmarked) [compound 874799]
40 | 2 nM | O=C(COc1ccc(Cl)cc1)N[C@H]1CC[C@H](NC(=O)COc2ccc(Cl)c(Cl)c2)CC1 [compound 874800]
41 | 2.4 nM | Cc1cc(OCC(=O)N[C@H]2CC[C@H](NC(=O)COc3ccc(Cl)cc3)CC2)ccc1Cl [compound 874801]
42 | 2 nM | O=C(COc1ccc(Cl)cc1)N[C@H]1CC[C@H](NC(=O)COc2ccc(Cl)c(F)c2)CC1 [compound 874802]
43 | 4 nM | O=C(COc1ccc(Cl)cc1)N[C@H]1CC[C@H](NC(=O)COc2ccc(Cl)c(C(F)(F)F)c2)CC1 [compound 874803]
44 | > 10000 nM | Clc1ccccc1CNC[C@H]1CC[C@H](CNCc2ccccc2Cl)CC1 [compound 874805]
45 | > 10000 nM | O=C(Cc1ccc(Cl)cc1)NCc1ccc(CNC(=O)Cc2ccc(Cl)cc2)cc1 [compound 885253]
46 | 152 nM | O=C(Cc1ccc(Cl)cc1)NC[C@H]1CC[C@H](NC(=O)COc2ccc(Cl)cc2)CC1 [compound 885256]
47 | > 10000 nM | O=C(N[C@H]1CC[C@H](NC(=O)OCc2ccc(Cl)cc2)CC1)OCc1ccc(Cl)cc1 [compound 885257]
48 | 125 nM | O=C(COc1ccc(Cl)cc1)N[C@H]1CC[C@H](NC(=O)COc2cccc(F)c2)CC1 [compound 912562]
49 | 334 nM | O=C(COc1ccc(Cl)cc1)N[C@H]1CC[C@H](NC(=O)COc2cccc(F)c2F)CC1 [compound 912563]
50 | 220 nM | O=C(COc1ccc(Cl)cc1)N[C@H]1CC[C@H](NC(=O)COc2cc(F)cc(F)c2)CC1 [compound 912564]
51 | > 10000 nM | O=C(COc1ccc(Cl)cc1)N[C@H]1CC[C@H](NC(=O)COc2cc(Cl)cc(Cl)c2)CC1 [compound 912565]
52 | 149 nM | CC(=O)c1cc(OCC(=O)N[C@H]2CC[C@H](NC(=O)COc3ccc(Cl)cc3)CC2)ccc1Cl [compound 912566]
53 | 5.2 nM | O=C(COc1ccc(Cl)cc1)N[C@H]1CC[C@H](NC(=O)COc2ccc(Cl)c(I)c2)CC1 [compound 914582]
54 | 12 nM | C#Cc1cc(OCC(=O)N[C@H]2CC[C@H](NC(=O)COc3ccc(Cl)cc3)CC2)ccc1Cl [compound 914584]
55 | 5.6 nM | O=C(COc1ccc(Cl)cc1)N[C@H]1CC[C@H](NC(=O)COc2ccc(I)cc2)CC1 [compound 914989]
56 | 14 nM | C#Cc1ccc(OCC(=O)N[C@H]2CC[C@H](NC(=O)COc3ccc(Cl)cc3)CC2)cc1 [compound 916353]
